Data reported in patent publication US8278066B2, “Truncated somatostatin receptors” (Board of Regents, The University of Texas System, priority 2001, dated 2012).

Legend:
[1] = target: full length SSTR2A fusion protein (HT1080 clones 21, 3, 11) (Homo sapiens, UniProt P30874)
[2] = target: intracellular tail minus SSTR2A fusion protein (HT1080 clones tail-1, tail-4) (Homo sapiens, UniProt P30874)
Chain of intracellular tail minus SSTR2A fusion protein (HT1080 clones tail-1, tail-4) (P30874 1-314): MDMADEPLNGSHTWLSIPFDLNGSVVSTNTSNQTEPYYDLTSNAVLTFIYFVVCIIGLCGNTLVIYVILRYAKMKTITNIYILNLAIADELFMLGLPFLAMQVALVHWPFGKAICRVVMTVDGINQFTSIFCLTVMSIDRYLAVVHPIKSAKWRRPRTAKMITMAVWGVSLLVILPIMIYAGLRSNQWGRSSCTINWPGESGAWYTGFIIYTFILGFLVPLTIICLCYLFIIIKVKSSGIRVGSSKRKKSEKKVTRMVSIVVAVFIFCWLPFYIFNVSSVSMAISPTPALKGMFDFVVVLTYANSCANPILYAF

Chain of full length SSTR2A fusion protein (HT1080 clones 21, 3, 11) (P30874 whole entry, the tested form may be a part): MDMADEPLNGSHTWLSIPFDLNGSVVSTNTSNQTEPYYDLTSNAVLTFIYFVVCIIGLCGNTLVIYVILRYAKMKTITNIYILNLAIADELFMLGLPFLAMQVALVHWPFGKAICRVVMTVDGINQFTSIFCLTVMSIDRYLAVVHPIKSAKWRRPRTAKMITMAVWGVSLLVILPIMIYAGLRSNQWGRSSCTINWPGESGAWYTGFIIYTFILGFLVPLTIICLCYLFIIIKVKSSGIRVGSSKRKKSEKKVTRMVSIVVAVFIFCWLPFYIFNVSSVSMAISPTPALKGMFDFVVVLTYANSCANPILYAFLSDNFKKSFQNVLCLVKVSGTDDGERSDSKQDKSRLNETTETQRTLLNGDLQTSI

With ^111In-octreotide the “Specific binding, order among clones” value [1] was “greater for clone 21 than 3 than 11”, the “counts per minute bound” value [1] was “more counts per minute without the addition of cold somastotin-28 then with its addition” and the “counts per minute bound” value [2] was “more counts per minute without the addition of cold somastotin-28 then with its addition”.
